Data set [1] deals with Glomerella Lagenarium (Colletotrichum Lagenarium). Description: Fungicidal activity against Glomerella lagenarium (Colletotrichum lagenarium) liquid culture / cucumber / preventative (anthracnose). The format is cell-based. The note with it: Colletotrichum orbiculare; 20 ppm in the applied formulation; liquid culture in PDB, growth inhibition measured photometrically 3 to 4 days after application; compared to untreated; read-out: disease control. As for the experimental part: (§1) General examples of leaf disk tests in well plates: Leaf disks or leaf segments of various plant species are cut from plants grown in a greenhouse. The cut leaf disks or segments are placed in multiwell plates (24-well format) onto water agar. The leaf disks are sprayed with a test solution before (preventative) or after (curative) inoculation. Compounds to be tested are prepared as DMSO solutions (max. 10 mg/ml) which are diluted to the appropriate concentration with 0.025% Tween20 just before spraying. The inoculated leaf disks or segments are incubated under defined conditions (temperature, relative humidity, light, etc.) according to the respective test system. A single evaluation of disease level is carried out 3 to 14 days after inoculation, depending on the pathosystem. Percent disease control relative to the untreated check leaf disks or segments is then calculated. General examples of liquid culture tests in well plates: Mycelia fragments or conidia suspensions of a fungus prepared either freshly from liquid cultures of the fungus or from cryogenic storage, are directly mixed into nutrient broth. DMSO solutions of the test compound (max. 10 mg/ml) are diluted with 0.025% Tween20 by a factor of 50 and 10 μl of this solution is pipetted into a microtiter plate (96-well format). The nutrient broth containing the fungal spores/mycelia fragments is then added to give an end concentration of the tested compound. The test plates are incubated in the dark at 24° C. and 96% relative humidity. The inhibition of fungal growth is determined photometrically after 2 to 7 days, depending on the pathosystem, and percent antifungal activity relative to the untreated check is calculated.
Example 4: Fungicidal Activity Against Glomerella Lagenarium (Colletotrichum Lagenarium) Liquid Culture/Cucumber/Preventative (Anthracnose)
Conidia of the fungus from cryogenic storage are directly mixed into nutrient broth (PDB—potato dextrose broth). After placing a (DMSO) solution of test compound into a microtiter plate (96-well format), the nutrient broth containing the fungal spores is added. The test plates are incubated at 24° C. and the inhibition of growth is measured photometrically 3 to 4 days after application.
The following compounds at 20 ppm in the applied formulation give at least 80% disease control in this test when compared to untreated control under the same conditions, which show extensive disease development.

Data set [2] relates to Puccinia recondita f, Sp. Tritici. Put plainly: Fungicidal activity against Puccinia recondita f. sp. tritici / wheat / leaf disc preventative (brown rust). The format is in vivo. The note with it: foliar, 200 ppm in the applied formulation, wheat leaf segments cv. Kanzler, inoculated 1 day after application, compared to untreated, read-out: disease control. As for the experimental part: as §1
Example 1: Fungicidal Activity Against Puccinia recondita f, Sp. Tritici/Wheat/Leaf Disc Preventative (Brown Rust)
Wheat leaf segments cv. Kanzler were placed on agar in multiwell plates (24-well format) and sprayed with the formulated test compound diluted in water. The leaf disks were inoculated with a spore suspension of the fungus 1 day after application. The inoculated leaf segments were incubated at 19° C. and 75% relative humidity (rh) under a light regime of 12 hours light/12 hours darkness in a climate cabinet and the activity of a compound was assessed as percent disease control compared to untreated when an appropriate level of disease damage appears in untreated check leaf segments (7 to 9 days after application).
(§2) The following compounds at 200 ppm in the applied formulation give at least 80% disease control in this test when compared to untreated control leaf disks under the same conditions, which show extensive disease development.

Data set [3] concerns Puccinia Recondite f. Sp. Tritici. Description: Fungicidal activity against Puccinia recondita f. sp. tritici / wheat / leaf disc curative (brown rust). The following applies: foliar, 24 h, 200 ppm in the applied formulation, wheat leaf segments cv. Kanzler, applied 1 day after inoculation, compared to untreated, read-out: disease control. The format is in vivo. Here is the method:
as §1
Example 2: Fungicidal Activity Against Puccinia Recondite f. Sp. Tritici Wheat/Leaf Disc Curative (Brown Rust)
Wheat leaf segments cv. Kanzler are placed on agar in multiwell plates (24-well format). The leaf segments are then inoculated with a spore suspension of the fungus. Plates were stored in darkness at 19° C. and 75% relative humidity. The formulated test compound diluted in water was applied 1 day after inoculation. The leaf segments were incubated at 19° C. and 75% relative humidity under a light regime of 12 hours light/12 hours darkness in a climate cabinet and the activity of a compound was assessed as percent disease control compared to untreated when an appropriate level of disease damage appears in untreated check leaf segments (6 to 8 days after application).
as §2

Another data set concerns Phakopsora pachyrhizi. Description: Fungicidal activity against Phakopsora pachyrhizi / soybean / leaf disc preventative (Asian soybean rust). In kind it is in vivo. The following applies: foliar, 200 ppm in the applied formulation, soybean leaf disks, inoculated one day after application, compared to untreated, read-out: disease control. As for the experimental part: as §1
Example 3: Fungicidal Activity Against Phakopsora pachyrhizi/Soybean/Leaf Disc Preventative (Asian Soybean Rust)
Soybean leaf disks are placed on water agar in multiwell plates (24-well format) and sprayed with the formulated test compound diluted in water. One day after application leaf discs are inoculated by spraying a spore suspension on the lower leaf surface. After an incubation period in a climate cabinet of 24-36 hours in darkness at 20° C. and 75% rh leaf disc are kept at 20° C. with 12 h light/day and 75% rh. The activity of a compound is assessed as percent disease control compared to untreated when an appropriate level of disease damage appears in untreated check leaf disks (12 to 14 days after application).
as §2

As a reminder, the melting point is the temperature of the solid-liquid transition. `O=C(NCc1ccc(-c2noc(C(F)(F)F)n2)cc1F)OC1CCOCC1` [Compound 1.1, tetrahydropyran-4-yl N-[[2-fluoro-4-[5-(trifluoromethyl)-1,2,4-oxadiazol-3-yl)phenyl]methyl) carbamate] gave a melting point of 105 to 108 °C. The inhibition of growth at 20 ppm in data set [1] is at least 80%. In addition, in data set [2], the pest or weed control at 200 ppm is at least 80%. For the same molecule, the pest or weed control at 200 ppm in data set [3] was at least 80%. Also, the pest or weed control at 200 ppm in the data set with Phakopsora pachyrhizi was at least 80%.
For `O=C(NCc1ccc(-c2noc(C(F)(F)F)n2)cc1F)NC1CC1` [Compound 2.4, 1-cyclopropyl-3-[[2-fluoro-4-[5-(trifluoromethyl)-1,2,4-oxadiazol-3-yl]phenyl]methyl]urea], the melting point lay within 150.1 to 152.4 °C. Also, the inhibition of growth at 20 ppm in data set [1] was at least 80%. The pest or weed control at 200 ppm in data set [2] is at least 80%. In addition, the pest or weed control at 200 ppm in data set [3] is at least 80%. Moreover, in the data set with Phakopsora pachyrhizi, the pest or weed control at 200 ppm was at least 80%.
`O=C(NCc1ccc(-c2noc(C(F)(F)F)n2)cc1)N1CCOCC1` [Compound 3.2, N-[[4-[5-(trifluoromethyl)-1,2,4-oxadiazol-3-yl]phenyl]methyl] morpholine-4-carboxamide] returned a melting point of 112 to 115 °C. Moreover, in data set [1], the inhibition of growth at 20 ppm was at least 80%. Besides, the pest or weed control at 200 ppm in data set [2] was at least 80%. Also, the pest or weed control at 200 ppm in data set [3] was at least 80%. The pest or weed control at 200 ppm in the data set with Phakopsora pachyrhizi was at least 80%.
`O=C(NCc1ccc(-c2noc(C(F)(F)F)n2)cc1)OC1CCOCC1` [Compound 1.2, tetrahydropyran-4-yl N-[[4-[5-(trifluoromethyl)-1,2,4-oxadiazol-3-yl]phenyl]methyl]carbamate] registered a melting point of 104 to 106 °C. For the same molecule, in data set [1], the inhibition of growth at 20 ppm was at least 80%. Further, the pest or weed control at 200 ppm in data set [2] is at least 80%. In addition, the pest or weed control at 200 ppm in data set [3] was at least 80%. For the same molecule, the pest or weed control at 200 ppm in the data set with Phakopsora pachyrhizi is at least 80%.
As for `O=C(NCc1ccc(-c2noc(C(F)(F)F)n2)cc1)n1ccnc1` [Compound 3.1, N-[[4-[5-(trifluoromethyl)-1,2,4-oxadiazol-3-yl]phenyl]methyl] imidazole-1-carboxamide], the melting point lay within 97 to 102 °C. For the same molecule, the inhibition of growth at 20 ppm in data set [1] is at least 80%. Further, the pest or weed control at 200 ppm in data set [2] is at least 80%. In addition, the pest or weed control at 200 ppm in data set [3] is at least 80%. In addition, the pest or weed control at 200 ppm in the data set on Phakopsora pachyrhizi is at least 80%.
